Holding throughout (type): cell-based, murine
The subject of test [1] is Raw 264.7 macrophages. Nature of the test: PMMA particle-induced TNF-α release from macrophages preincubated with MyD88 inhibitory peptide or control peptide (ELISA). To be noted: 100 μM peptide, 24 h preincubation, PMMA particles 0.30% v/v, p<0.01. Here is the method:
MyD88 inhibitory peptide experiments: The murine monocyte/macrophage cell line Raw 264.7 was cultured in DMEM containing 10% (v/v) FBS (5% CO2, 37° C.). Cells were plated in 24-well tissue culture plates at 1×10^5 cells/well in 1 ml of media with serum and allowed to adhere for 24 hours. […] Following the preincubation period in each group, PMMA particles (Polysciences, 1-10 μm) were added at a dose of 0.30% v/v. Each group was plated in triplicate and the experiment was repeated three times.
Quantification of TNF-α release: Macrophages were exposed to PMMA particles and samples from the culture media were collected at 1, 4, and 12 hours post challenge. TNF-α levels were quantified using ELISA kits. Data were analyzed by ANOVA.
(§1) Preparation of particles: PMMA particles were washed 5× with 70% ethanol and incubated overnight with shaking at 4° C. The particles were then washed 3× with DPBS and resuspended to a concentration of 16% v/v. The particles were free of endotoxin using a high-sensitivity Limulus amoebocyte lysate assay (BioWhittaker).
A general note: In an ELISA, binding on a coated surface is turned into a signal by an enzyme label.

For test [2], the system named is Raw 264.7 macrophages. Kind of test: LPS-induced TNF-α release from macrophages with or without polymyxin B (ELISA). To be noted: 12 h. On the procedure: (§2) Polymyxin B preparation: Polymyxin B was prepared fresh before each use and added to cell cultures at a concentration of 10 μg/ml.
Raw264.7 macrophage cell culture experiments: The murine monocyte/macrophage cell line Raw 264.7 was cultured in DMEM containing 10% (v/v) FBS (5% CO2, 37° C.). Cells were plated in 24-well tissue culture plates at 1×10^5 cells/well in 1 ml of media with serum and allowed to adhere for 24 hours. The media was then replaced with 1 ml of media containing one of four conditions: 1) media alone; 2) 10 μg/ml of polymyxin B; 3) 500 pg/ml of LPS (E. coli 055:B5, Sigma); 4) 500 pg/ml LPS and 10 μg/ml polymyxin B. TNF-α release was measured at 12 h after incubation using ELISA. Each group was plated in triplicate and the experiment was repeated two times. Data were analyzed by ANOVA. A p-value <0.05 was considered significant.

In test [3] the test system is Raw 264.7 macrophages. Nature of the test: PMMA particle-induced TNF-α release from macrophages with or without polymyxin B (ELISA). The settings on record: 0.30% PMMA particles plus 10 μg/ml polymyxin B. On the procedure:
as §1, §2
Quantification of TNF-α release with wear debris particles: Macrophages were cultured as above. The media was then replaced with 1 ml of media containing one of three conditions: 1) media alone; 2) PMMA particles at a dose of 0.30% v/v; 3) 0.30% PMMA particles plus 10 μg/ml of polymyxin B. TNF-α levels were measured at 1, 4, and 12 hours post challenge.

Regarding “MyD88 inhibitory peptide: MyD88 homodimerization inhibitory peptide (Imgenex), which binds the MyD88 monomer, blocking MyD88 activation; possibly DRQIKIWFQNRRMKWKKRDVLPGT of b57”, the “decrease of particle-induced TNF-α release” value with Raw 264.7 macrophages [1] (4 h post challenge) turned out to be 63%; with Raw 264.7 macrophages [1] (12 h post challenge) it was 32%.
With Polymyxin B, the TNF-α levels in the test with Raw 264.7 macrophages [2] (500 pg/ml LPS plus 10 μg/ml polymyxin B) came to 1120 pg/mL. Also, the “TNF-α release compared to macrophages alone” value in the test with Raw 264.7 macrophages [2] (10 μg/ml polymyxin B alone, no LPS) is on record as “no significant difference”. The “effect on particle-induced TNF-α release” value in the test on Raw 264.7 macrophages [3] (4 h) is “did not alter”; with Raw 264.7 macrophages [3] (overall statement), “no significant effect”. Besides, the “decrease of particle-induced TNF-α release” value in the test with Raw 264.7 macrophages [3] (12 h, non-significant) is recorded as 25%.

Values taken from US20090227487A1, “METHODS FOR THE CONTROL OF MACROPHAGE-ASSOCIATED INFLAMMATION” (priority 2008, published 2009).
